Common to all, as to experiment: DTP human tumour cell line panel, 48 h
The subject of assay [1] is BT-549 breast.
The subject of assay [2] is HS 578T breast.
Assay [3] deals with MDA-MB-435.
In assay [4] the test system is NCI/ADR-RES ovarian.
The subject of assay [5] is T-47D breast.

By GI50 is commonly meant the concentration at which growth is held to half of that of the control. Usually TGI stands for the concentration giving total growth inhibition. Read a low TGI as greater sensitivity of the cells.

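Step 1: Grow cells in 96-well plates. Step 2: Expose to compound for 48 hours at 5 concentrations. Step 3: Interpolate endpoints linearly; if unreached, use highest concentration. Abbreviation: GI50, concentration required for 50% inhibition of growth. TGI: total growth inhibition.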

For `CN1CCN(c2ccc(NC3=C(Cl)C(=O)c4ncccc4C3=O)cc2C(F)(F)F)CC1`, the GI50 in assay [1] is 13 µM; in assay [2] it was 3.31 µM; in assay [3], 1.79 µM; in assay [4], 2.46 µM; in assay [5], 1.33 µM. The TGI in assay [1] is 26.3 µM; in assay [2], 42.3 µM; in assay [3] it was 3.3 µM; in assay [4], 7.47 µM; in assay [5], 5.31 µM.

As to `COc1ccc(OC)c(-c2cn3nc(-c4c[nH]c5ccc(Br)cc45)sc3n2)c1`, the GI50 was 2.9 µM in assay [1], 2.87 µM in assay [2], 2.42 µM in assay [3] and 3.38 µM in assay [4]. For the same molecule, the TGI in assay [1] is 11.2 µM; in assay [2], 14.5 µM; in assay [3], 5.83 µM; in assay [4], 10.9 µM.

In the case of `COc1ccc(/C=C2/CCOC2=O)cc1`, the GI50 in assay [1], in assay [4] and in assay [5] was above 100 µM throughout. Moreover, the TGI in assay [1], in assay [4] and in assay [5] was above 100 µM in each case.

For the molecule `CC(=O)c1ccc(NCn2nc(-c3ccccc3O)oc2=S)cc1`, the GI50 in assay [1] was 56.2 µM; in assay [2] it was above 100 µM; in assay [3], above 100 µM; in assay [4] it was above 100 µM; in assay [5], 85.9 µM. Further, the TGI in assay [1], in assay [2], in assay [3], in assay [4] and in assay [5] was above 100 µM in each case.

For the molecule `COc1cc(C)c(N(C)C(=O)CN(C)C)cc1Nc1nc(Nc2cccc(F)c2C(N)=O)c2cc[nH]c2n1`, the GI50 in assay [1] is 18.4 µM; in assay [2], above 17.5 µM; in assay [3], above 25 µM; in assay [4], above 25 µM; in assay [5] it was above 25 µM. Also, the TGI in assay [1], in assay [2], in assay [3], in assay [4] and in assay [5] was above 25 µM in each case.

As to `O=c1c2ccccc2c(C=NCCNCCO)c2oc3ccccc3n12`, the GI50 in assay [3] was 12.3 µM; in assay [4] it was 13.8 µM; in assay [5], 4.12 µM. For the same molecule, the TGI in assay [3] was found to be 24.7 µM; in assay [4] it was 26.7 µM; in assay [5], 17.9 µM.

Consider `COc1cccc2c1C(=O)c1c(O)c3c(c(O)c1C2=O)C[C@@](O)(C(=O)COC(=O)c1cccnc1)C[C@@H]3OC1CC(N)C(O)C(C)O1` (some centres undefined), for which the 50% growth inhibitory concentration (GI50) in assay [1] is 0.193 µM; in assay [2] it was 0.175 µM; in assay [3] it was 0.217 µM; in assay [4] it was 3.95 µM; in assay [5], 0.0982 µM. In addition, the TGI in assay [1] is 1.02 µM; in assay [2], 0.984 µM; in assay [3], 1 µM; in assay [4], above 100 µM; in assay [5] it was 2.64 µM.

`O=c1cc(-c2ccccc2)oc2cc(OCc3cn(Cc4ccc(F)cc4)nn3)cc(O)c12`: the values for the GI50 in assay [1], in assay [2] and in assay [4] were 7.98 µM, 6.26 µM and 5.57 µM, respectively. Moreover, the TGI in assay [1], in assay [2] and in assay [4] was above 100 µM throughout.

As for `COc1cc([N+](=O)[O-])c(S(=O)(=O)O)cc1-n1nc(-c2ccccc2)n[n+]1-c1cc(S(=O)(=O)[O-])c([N+](=O)[O-])cc1OC`, the TGI in assay [2], in assay [3], in assay [4] and in assay [5] was above 100 µM throughout.

Turning to `COc1ccccc1NC(=O)N/C(N)=N/c1nc2ccccc2s1`, the GI50 was 0.334 µM in assay [1]; 0.0695 µM in assay [2]; 0.0211 µM in assay [3]; 0.0474 µM in assay [4]; 0.394 µM in assay [5]. The TGI was above 100 µM in assay [1], above 100 µM in assay [2], 0.0692 µM in assay [3] and above 100 µM in assay [5].

Take `CC(C)(C)c1ccc(NC(=O)c2cc(=O)c3ccccc3[nH]2)c(C(C)(C)C)c1O`: the GI50 in assay [1] was 6.77 µM; in assay [2], 6.46 µM; in assay [3] it was 4.92 µM; in assay [4], 9.11 µM; in assay [5], 7.49 µM. In addition, the TGI in assay [1] is 19.9 µM; in assay [2], 39 µM; in assay [3], 17.7 µM; in assay [4], 24.4 µM; in assay [5], 21.9 µM.

Turning to `CC(=O)OC1C(O)COC(Oc2c(C)c3c4c(c2O)[C@@H](C)CC[C@@H]4[C@@H](C)C[C@H]3C=C(C)C)C1O` (some centres undefined), the GI50 in assay [2] is 16.8 µM; in assay [3], 24 µM; in assay [4], 15.4 µM; in assay [5], 39.4 µM. The TGI in assay [2] is 37.2 µM; in assay [3], 67.4 µM; in assay [4], 32.5 µM; in assay [5], above 100 µM.

Turning to `COc1cc2c(c(OC)c1OC)C(=O)c1c-2n(CCCN)c(=O)c2cc([N+](=O)[O-])ccc12`, the GI50 was 1.76 µM in assay [1]; 2 µM in assay [2]; 1.07 µM in assay [3]; 2.03 µM in assay [4]; 2.48 µM in assay [5]. Moreover, the TGI in assay [1] turned out to be 3.53 µM; in assay [2], 4.99 µM; in assay [3] it was 2.4 µM; in assay [4], 9.98 µM; in assay [5] it was 6.91 µM.

Regarding `c1ccc(CN2CCC3(CC2)ONC2=NCCN23)cc1`, the GI50 in assay [1] was above 100 µM; in assay [3], 91.5 µM; in assay [4], 18.2 µM; in assay [5] it was above 100 µM. Besides, the concentration for total growth inhibition (TGI) in assay [1], in assay [3], in assay [4] and in assay [5] was above 100 µM each time.

Consider `CN(C)c1ccc2c(SCC(=O)OCC(=O)[C@@]3(O)CC[C@H]4[C@@H]5CCC6=CC(=O)C=C[C@]6(C)[C@H]5C(=O)C[C@@]43C)c3ccc(N(C)C)cc3nc2c1`, for which the TGI in assay [1] is above 49.5 µM; in assay [2] it was above 100 µM; in assay [3] it was above 72.1 µM; in assay [5] it was above 100 µM.

As to `COc1ncnc2c1ncn2C/C(Br)=C(\Br)CCl`, the GI50 in assay [3] is 2.94 µM; in assay [4], 6.12 µM; in assay [5], 2.37 µM. For the same molecule, the TGI came out at 11.5 µM in assay [3], 18.9 µM in assay [4] and 6.84 µM in assay [5].

For the molecule `S=C1SC2(CCCCCC2)NC2=C1CCCCC2`, the TGI was 47.6 µM in assay [2], above 100 µM in assay [3], above 100 µM in assay [4] and above 100 µM in assay [5].

Source of the values: PubChem BioAssay (NCI).
